{"source": "patent US11136291B2", "about": "“Antifungal compounds and uses thereof” (Dana-Farber Cancer Institute, Inc., priority 2016, dated 2021)", "key": {"[1]": {"tested_on": "S. cerevisiae", "assay": "Cell growth inhibition screen with 5 μM ketoconazole", "conditions": "in the presence of 5 μM ketoconazole", "quoted_text": "S. cerevisiae SEY6210 wild-type strains were grown in YPD (U % yeast extract, 2% bacto peptone, 2% dextrose) at 30° C. with shaking overnight until saturation. The next day, cultures were inoculated to an OD600 of 0.0007 and grown for 17 hours, to an OD600˜0.5, 384-well plates were set up in duplicate with either YPD alone or with YPD containing a final concentration of 5 μM ketoconazole. 384-well plates contained 5 two-fold dilutions of each compound, corresponding to a final concentration range of 20 μg/mL to 1.25 μg/mL. Wells were inoculated with cells to a final OD600 of 0.00025 in YPD."}, "[2]": {"assay": "In vitro stability (plasma, microsomes) and in vivo mouse pharmacokinetics", "description": "Microsome stability assays were performed as previously described (see, e.g., Choi J Y, Calvet C M, Gunatilleke S S, Ruiz C, Cameron M D, McKerrow J H, et al. Rational development of 4-aminopyridyl-based inhibitors targeting Trypanosoma cruzi CYP51 as anti-chagas agents. J Med Chem. 56(19):7651-68. PMCID: 3864028); for plasma stability, 100% freshly drawn plasma in LiHeparin was used with similar sampling and sample preparation with no addition of microsomes, buffer or NADPH.\nMale Swiss albino mice were dosed via tail vein (IV; intravenous, solution in 5% NMP and 10% solutol in saline, dose: 2 mg/kg) or via oral gavage (PO; suspensions in 0.5% w/v Na CMC with 0.1% v/v Tween-80 in water). Blood and brain samples were collected at 0, 0.083 (for IV only), 0.25, 0.5, 1, 2, 4, 6 (for PO only), 8, 12, and 24 hours for the IV and PO groups. The blood samples were collected from sets of three mice at each time point. Plasma samples were separated by centrifugation and stored below −70° C. until analysis. Brain samples were homogenized using ice-cold phosphate buffer saline (pH 7.4) and homogenates were stored below −70° C. until analysis. All samples were processed and analyzed by […] (LLOQ, 2.03 ng/mL for plasma and 10.16 ng/mL for brain). Pharmacokinetic parameters were calculated using the noncompartmental analysis tool of Phoenix WinNonlin (version 5.3)."}, "[3]": {"tested_on": "rhodamine 6G efflux in C. glabrata", "assay": "Rhodamine 6G efflux assay", "format": "cell-based, Candida glabrata", "conditions": "PDR1 wild-type or gain-of-function strains, iKIX1 pre-treatment vs vehicle", "description": "Cells were treated with vehicle or iKIX1 and grown with shaking for 16 hours. […] Untreated cells were placed on ice and not treated with ketoconazole or rhodamine 6G. All cells were placed on ice and washed twice with cold YP containing either 5 μM ketoconazole+vehicle (DMSO) or 5 μM ketoconazole+30 μM iKIX1 to remove excess rhodamine 6G. Cells were resuspended in room temperature YP with either 5 μM ketoconazole+vehicle (DMSO) or 5 μM ketoconazole+30 μM iKIX1 and 100 μL was transferred to a 96-well plate. An Envision 2103 Multilabel plate reader was used to assess RFU (relative fluorescence units; excitation 485, emission 535) over 60 minutes at 7.5 minute intervals. Efflux rate was calculated as RFU per second with 7.5 minute windows. Experiments were performed in triplicate, with duplicate readings for each sample; error bars indicate s.d."}, "[4]": {"tested_on": "C. glabrata adherence to CHO-Lec2 cells", "assay": "Yeast adherence to epithelial CHO-Lec2 cells", "conditions": "PDR1^L280F mutant; 30 μM iKIX1 or 40 μM ketoconazole"}, "[5]": {"tested_on": "CgCDR1 transcription (CgPdr1 target)", "assay": "Transcription assay, quantitative real-time PCR of CgPdr1 target genes", "format": "cell-based, Candida glabrata"}, "[6]": {"tested_on": "C. glabrata CgPDR1 wild-type and gain-of-function mutant strains", "assay": "Spot plating on gradient plates with azole", "format": "cell-based, Candida glabrata"}, "[7]": {"tested_on": "Saccharomyces cerevisiae DSY2094", "assay": "Broth dilution MIC", "quoted_text": "Antifungal susceptibility testing was carried out using broth dilution assays which examined effects of two-fold dilutions of compounds on cellular growth. The minimum inhibitory concentration (MIC) was defined as the drug concentration at which the optical density was equal to or decreased more than 50% from that of the drug-free culture."}, "[8]": {"tested_on": "C. glabrata", "assay": "Mouse disseminated fungal burden model", "format": "in vivo", "conditions": "for fungal burden (CFU/g kidney): Cgpdr1 null strain (SFY93)"}, "[9]": {"tested_on": "azole-activated and Pdr1-dependent genes", "assay": "RNA-Seq", "conditions": "10 μM iKIX1 with 40 μM ketoconazole", "quoted_text": "Cells were grown in YPD at 30° C. with shaking overnight (24 hours) then washed twice in 2× volume of Milli-Q water before being resuspended in YP to an OD600 of 0.8. Cells were grown with shaking overnight (˜16 hours) before splitting and treatment with vehicle (DMSO) or 10 μM iKIX1. Cells were grown with shaking another 8 hours before harvest of non-azole induced samples. Remaining cultures were induced to a final concentration of 40 μM ketoconazole and harvested after 15 minutes by centrifugation at 4,000 rpm for 4 minutes at 4° C. Media was aspirated and cells were snap frozen on dry ice. RNA isolation was performed as previously described (see, e.g., Martin R, Moran G P, Jacobsen I D, Heyken A, Domey J, Sullivan D J, et al. The Candida albicans-specific gene EED1 encodes a key regulator of hyphal extension. PLoS One.6(4):e18394. PMCID: 3075580); RNA was then DNase treated using recombinant DNasel. […] Sequencing was carried out on Illumina HiSeq 2500, resulting in approximately 17.68 million of 50 bp paired-end reads per sample. STAR aligner was used to map sequencing reads to transcripts in the reference genomes (S288C for Saccharomyces cerevisiae and draft genome from isolate DSY562 for Candida glabrata) (see, e.g., Dobin A, Davis C A, Schlesinger F, Drenkow J, Zaleski C, Jha S, et al. STAR: ultrafast universal RNA-seq aligner. Bioinformatics.29(1):15-21. PMCID: 3530905). […]"}, "[10]": {"target": "T1, CgGal11A KIX domain (Candida glabrata, UniProt Q6FRS9)", "T1 construct": "other: compared with iKIX1; other: GST-CgGal11A KIX 3 μM, 30 nM FITC-CgPdr1 AD30; Kd of CgPdr1 AD30 for CgGal11A KIX domain; other: FP titration, 30 nM FITC-CgPdr1 AD30; Kd of the CgPdr1 AD for the CgGal11A KIX domain; apparent Ki; fused on or other part: N-terminal His6-GST tag", "assay": "Fluorescence polarization (FP) binding/competition assay, CgPdr1 AD30 with CgGal11A KIX", "conditions": "calculated from measured Kd and IC50; read-out: apparent Ki", "description": "A fluorescein-tagged 30 amino acid C-terminal activation domain of CgPdr1 (FITC-[…] (SEQ ID NO: 1)) CgPdr1 AD30 was purchased as a synthetic peptide from Pepide2.0. The CgGal11A KIX domain was expressed as a His6-GST fusion protein and purified by affinity chromatography with Ni-NTA resin (Qiagen) and size exclusion chromatography (Sephadex 75, Pharmacia). […] For small molecule screening, fluorescein-CgPdr1 AD30 was held at a concentration of 30 nM and the GST-tagged CgGal11A KIX was at a concentration of 1 μM (above the Kd). The screen was carried out in duplicate and the volume in each well was 25 μL.\nTo measure the dissociation constant (Kd) of CgPdr1 AD30, FITC labeled CgPdr1 AD30 was held at a concentration of 30 nM and the GST-tagged CgGal11A KIX was prepared with concentrations ranging from 0 to 300 μM. The IC50 for iKIX-1 binding was measured with GST-tagged CgGal11A KIX held at a constant 3 μM concentration, iKIX-1 was titrated from 0 to 1000 μM and 30 nM FITC-labeled CgPdr1 AD30 was added subsequently with an HP D300 digital dispenser (Tecan Group. Maennerdorf, Switzerland). All experiments were carried out in duplicate and the s.d. is reported at each point on the plot.\nThe FP titration curve of the CgPdr1 AD30 was fitted to GraphPad Prisms (La Jolla, Calif., USA) One site-total binding equation (equation 1). […]"}}, "note": "Entries after “also recorded” stand apart in the source; their conditions may differ.", "data": [{"smiles": "N#CCC(=O)NNC(=S)Nc1ccc(Cl)c(Cl)c1", "note": "[iKIX1, 2-(2-Cyanoacetyl)-N-(3,4-dichlorophenyl)hydrazinecarbothioamide]", "values": [{"measurement": "cell growth", "setting": "[1]", "value": "inhibits cell growth in a concentration-dependent manner"}, {"measurement": "in vitro stability and in vivo mouse pharmacokinetics (in words)", "setting": "[2]", "value": "favorable drug-like properties and in vivo exposure"}, {"measurement": "maximum rhodamine 6G efflux rates", "setting": "[3]", "value": "Maximum efflux rates were significantly decreased"}, {"measurement": "relative adherence to epithelial cells", "setting": "[4]", "value": "reduce adherence; also recorded: reduced adherence to levels similar to a PDR1 wild-type strain"}, {"measurement": "ketoconazole-induced CgPdr1 target gene (CgCDR1) transcription (in words)", "setting": "[5]; CgPDR1 wild-type strain (SFY114), pre-treatment then 40 μM ketoconazole", "value": "reduced target gene induction in a durable and concentration-dependent manner"}, {"measurement": "Pdr1-target gene induction", "setting": "[5]; iKIX1 alone, no azole", "value": "did not significantly affect Pdr1-target gene induction"}, {"measurement": "azole-induced transcription of CgPdr1 target genes", "setting": "[5]; isogenic strains with gain-of-function CgPDR1 mutations", "value": "reduced azole-induced transcription of CgPdr1 target genes (e.g., CgCDR1) in a concentration-dependent manner in all strains tested"}, {"measurement": "azole sensitivity of growth on gradient plates", "setting": "[6]; CgPDR1 gain-of-function mutant strains, compound gradient with fluconazole or ketoconazole", "value": "restored azole-sensitivity to PDR1 gain-of-function mutant strains in a concentration-dependent manner"}, {"measurement": "growth inhibition on gradient plates", "setting": "[6]; CgPDR1 wild-type strains, iKIX1 with azole vs single agents", "value": "increased growth inhibition"}, {"measurement": "MIC", "setting": "[7]", "value": 12.5, "unit": "µM"}, {"measurement": "reductions in fungal burdens in the kidney and spleen", "setting": "[8]; CgPDR1^L280F strain, iKIX1 100 mg/kg with 100 mg/kg fluconazole, i.p. once daily, 7 days, P<0.0001", "value": "~10", "unit": "fold"}, {"measurement": "fungal burden (CFU/g kidney)", "setting": "[8]; iKIX1 alone, 100 mg/kg/day", "value": "significantly reduces fungal burden; also recorded: more sensitive to iKIX1 alone"}, {"measurement": "fungal burden (CFU/g kidney)", "setting": "[8]; low iKIX1 (10 mg/kg/day) added to fluconazole, 10 mg/kg/day", "value": "did not confer additional reductions in CFU/g kidney; also recorded: did not further reduce fungal burden"}, {"measurement": "tissue fungal burden in the kidney and spleen", "setting": "[8]; […], iKIX1 100 mg/kg co-treatment with 100 mg/kg fluconazole", "value": "did not result in further reductions"}, {"measurement": "fungal tissue burdens in the spleen or kidney", "setting": "[8]; […], iKIX1 combination with fluconazole", "value": "reduces fungal tissue burdens in the spleen or kidney"}, {"measurement": "reductions in fungal burdens in both organs (kidney, spleen)", "setting": "[8]; mouse, in vivo, 25 mg/kg", "value": "~10", "unit": "fold"}, {"measurement": "expression of azole-activated and Pdr1-dependent genes", "setting": "[9]", "value": "strongly blunted expression of many azole-activated and Pdr1-dependent genes"}, {"measurement": "Ki", "setting": "[10]", "value": 18.1, "unit": "µM"}]}]}
